Data taken from US20230265336A1, “COMPOSITION WITH FOAMING PROPERTIES” (priority 2020, published 2023).

Tests used:
[1] = based on the safety data sheet (SDS); cited from earlier work

Structure (SMILES): [O]=[Mg] [MgO]
- Solubility in brine (in words): insoluble

Structure (SMILES): [Cl-].[Cl-].[Mg+2] [magnesium chloride]
- Biodegradability (in words) [1]: good biodegradability
- Toxicity as an individual substance (in words) [1]: non-toxic
